Measured values: patent US11040962B2, “Pesticidally active pyrazole derivatives” (SYNGENTA PARTICIPATIONS AG, priority 2017, dated 2021)

Assays:
[1] = system: Diabrotica balteata; assay: Diabrotica balteata (corn root worm) maize sprout spray test; format: in vivo; settings: 96 h, application rate 200 ppm, L2 larvae, 4 days after infestation, vs untreated, read-out: effect in at least one of the two categories (mortality or growth inhibition)
Procedure: Diabrotica balteata, (Corn Root Worm)
Maize sprouts, placed on an agar layer in 24-well microtiter plates were treated with aqueous test solutions prepared from 10′000 ppm DMSO stock solutions by spraying. After drying, the plates were infested with L2 larvae (6 to 10 per well). The samples were assessed for mortality and growth inhibition in comparison to untreated samples 4 days after infestation. The following compounds gave an effect of at least 80% in at least one of the two categories (mortality or growth inhibition) at an application rate of 200 ppm: 1, 2, 3, 4, 7, 8, 9, 11, 12, 13, 14, 15, 16, 17, 18, 19, 20, 21, 27, 28 and 29.

[2] = system: Euschistus heros; assay: Euschistus heros (neotropical brown stink bug) soybean leaf spray test; format: in vivo; settings: 120 h, application rate 200 ppm, N2 nymphs, 5 days after infestation, vs untreated, read-out: effect in at least one of the two categories (mortality or growth inhibition)
Procedure: Euschistus heros (Neotropical Brown Stink Bug)
Soybean leaves on agar in 24-well microtiter plates were sprayed with aqueous test solutions prepared from 10′000 ppm DMSO stock solutions. After drying the leaves were infested with N2 nymphs. The samples were assessed for mortality and growth inhibition in comparison to untreated samples 5 days after infestation. The following compounds gave an effect of at least 80% in at least one of the two categories (mortality or growth inhibition) at an application rate of 200 ppm: 1, 2, 3, 7, 8, 9, 12, 13, 14, 15, 17, 18, 21, 25, 26, 27, 28 and 29.

[3] = system: Plutella xylostella; assay: Plutella xylostella (diamond back moth) artificial diet test; format: in vivo; settings: 120 h, application rate 200 ppm, L2 larvae, 5 days after infestation, vs untreated, read-out: effect in at least one of the two categories (mortality or growth inhibition)
Procedure: Plutella xylostella (Diamond Back Moth):
24-well microtiter plates with artificial diet were treated with aqueous test solutions prepared from 10′000 ppm DMSO stock solutions by pipetting. After drying, the plates were infested with L2 larvae (10 to 15 per well). The samples were assessed for mortality and growth inhibition in comparison to untreated samples 5 days after infestation. The following compounds gave an effect of at least 80% in at least one of the two categories (mortality or growth inhibition) at an application rate of 200 ppm: 1, 2, 3, 4, 7, 8, 9, 10, 11, 12, 13, 14, 15, 16, 17, 18, 19, 20, 21, 22, 23, 24, 26, 27, 28 and 29.

[4] = system: Thrips tabaci; assay: Thrips tabaci (onion thrips) sunflower leaf disc spray test; format: in vivo; settings: foliar, 144 h, application rate 200 ppm, population of mixed ages, 6 days after infestation
Procedure: Thrips tabaci (Onion Thrips):
(§1) Sunflower leaf discs were placed on agar in 24-well microtiter plates and sprayed with aqueous test solutions prepared from 10′000 ppm DMSO stock solutions. After drying the leaf discs were infested with a Thrips population of mixed ages. The samples were assessed for mortality 6 days after infestation.

[5] = system: Tetranychus urticae; assay: Tetranychus urticae (two-spotted spider mite) bean leaf disc spray test; format: in vivo; settings: foliar, 192 h, application rate 200 ppm, 8 days after infestation, read-out: mortality on mixed population (mobile stages)
Procedure: Tetranychus urticae (Two-Spotted Spider Mite):
as §1, with “Bean” for “Sunflower”, “discs” for “discs were placed”, “were” for “and”, “mite” for “Thrips”, “on mixed population (mobile stages) 8” for “6”

[6] = system: Spodoptera littoralis; assay: Spodoptera littoralis (Egyptian cotton leaf worm) cotton leaf disc spray test; format: in vivo; settings: foliar, 72 h, application rate 200 ppm, L1 larvae, 3 days after infestation, vs untreated, read-out: control (at least one of mortality, anti-feedant effect, growth inhibition)
Procedure: Spodoptera littoralis (Egyptian Cotton Leaf Worm)
Cotton leaf discs were placed on agar in 24-well microtiter plates and sprayed with aqueous test solutions prepared from 10′000 ppm DMSO stock solutions. After drying the leaf discs were infested with five L1 larvae. The samples were assessed for mortality, anti-feedant effect, and growth inhibition in comparison to untreated samples 3 days after infestation. Control of Spodoptera littoralis by a test sample is when at least one of mortality, anti-feedant effect, and growth inhibition is higher than the untreated sample.

Structure (SMILES)	percent effect (mortality or growth inhibition) at 200 ppm [1] [%]	percent effect (mortality or growth inhibition) at 200 ppm [2] [%]	percent effect (mortality or growth inhibition) at 200 ppm [3] [%]	mortality at 200 ppm [4] [%]	mortality at 200 ppm [5] [%]	percent control (mortality, anti-feedant effect or growth inhibition) at 200 ppm [6] [%]	melting point [°C]
Cn1nc(C(F)(F)C(F)(F)F)c(C(F)(F)F)c1-n1cc(-c2cc(C(=O)NC3CC3)c(Cl)s2)nn1 [Compound 7, 2-chloro-N-cyclopropyl-5-[1-[2-methyl-5-(1,1,2,2,2-pentafluoroethyl)-4-(trifluoromethyl)pyrazol-3-yl]triazol-4-yl]thiophene-3-carboxamide]	≥ 80	≥ 80	≥ 80	≥ 80	≥ 80	≥ 80	–
CN(C(=O)c1cc(-c2cc(-c3c(C(F)(F)F)c(C(F)(F)C(F)(F)F)nn3C)cs2)sc1C#N)C1CC1 [Compound 28, 2-cyano-N-cyclopropyl-N-methyl-5-[4-[2-methyl-5-(1,1,2,2,2-pentafluoroethyl)-4-(trifluoromethyl)pyrazol-3-yl]-2-thienyl]thiophene-3-carboxamide]	≥ 80	≥ 80	≥ 80	≥ 80	≥ 80	≥ 80	–
CN(C(=O)c1cc(-c2cn(-c3c(C(F)(F)F)c(C(F)(F)C(F)(F)F)nn3C)nn2)sc1C#N)C1(C#N)CC1 [Compound 5, 2-cyano-N-(1-cyanocyclopropyl)-N-methyl-5-[1-[2-methyl-5-(1,1,2,2,2-pentafluoroethyl)-4-(trifluoromethyl)pyrazol-3-yl]triazol-4-yl]thiophene-3-carboxamide]	–	–	–	–	–	–	185 to 187
CCN(C(=O)c1cc(-c2cn(-c3c(C(F)(F)F)c(C(F)(F)C(F)(F)F)nn3C)nn2)sc1C#N)C1CC1 [Compound 3, 2-cyano-N-cyclopropyl-N-ethyl-5-[1-[2-methyl-5-(1,1,2,2,2-pentafluoroethyl)-4-(trifluoromethyl)pyrazol-3-yl]triazol-4-yl]thiophene-3-carboxamide]	≥ 80	≥ 80	≥ 80	≥ 80	≥ 80	≥ 80	–
Cn1nc(C(F)(F)C(F)(F)F)c(C(F)(F)F)c1-n1cc(-c2cc(C(=O)NC3CC3)c(C#N)s2)nn1 [Compound 1, 2-cyano-N-cyclopropyl-5-[1-[2-methyl-5-(1,1,2,2,2-pentafluoroethyl)-4-(trifluoromethyl)pyrazol-3-yl]triazol-4-yl]thiophene-3-carboxamide]	≥ 80	≥ 80	≥ 80	≥ 80	≥ 80	≥ 80	–
CN(C(=O)c1cc(-c2cc(-c3c(C(F)(F)F)c(C(F)(F)C(F)(F)F)nn3C)no2)sc1C#N)C1CC1 [Compound 14, 2-cyano-N-cyclopropyl-N-methyl-5-[3-[2-methyl-5-(1,1,2,2,2-pentafluoroethyl)-4-(trifluoromethyl)pyrazol-3-yl]isoxazol-5-yl]thiophene-3-carboxamide]	≥ 80	≥ 80	≥ 80	≥ 80	≥ 80	≥ 80	–
CCN(C(=O)c1cc(-c2cc(-c3c(C(F)(F)F)c(C(F)(F)C(F)(F)F)nn3C)cs2)sc1C#N)C1CC1 [Compound 29, 2-cyano-N-cyclopropyl-N-ethyl-5-[4-[2-methyl-5-(1,1,2,2,2-pentafluoroethyl)-4-(trifluoromethyl)pyrazol-3-yl]-2-thienyl]thiophene-3-carboxamide]	≥ 80	≥ 80	≥ 80	≥ 80	≥ 80	≥ 80	–
Cn1nc(C(F)(F)C(F)(F)F)c(C(F)(F)F)c1-c1csc(-c2cc(C(=O)NC3CC3)c(C#N)s2)c1 [Compound 27, 2-cyano-N-cyclopropyl-5-[4-[2-methyl-5-(1,1,2,2,2-pentafluoroethyl)-4-(trifluoromethyl)pyrazol-3-yl]-2-thienyl]thiophene-3-carboxamide]	≥ 80	≥ 80	≥ 80	≥ 80	≥ 80	≥ 80	–
CCN(C(=O)c1cc(-c2cc(-c3c(C(F)(F)F)c(C(F)(F)C(F)(F)F)nn3C)no2)sc1C#N)C1CC1 [Compound 15, 2-cyano-N-cyclopropyl-N-ethyl-5-[3-[2-methyl-5-(1,1,2,2,2-pentafluoroethyl)-4-(trifluoromethyl)pyrazol-3-yl]isoxazol-5-yl]thiophene-3-carboxamide]	≥ 80	≥ 80	≥ 80	≥ 80	≥ 80	≥ 80	–
CN(C(=O)c1cc(-c2cn(-c3c(C(F)(F)F)c(C(F)(F)C(F)(F)F)nn3C)nn2)sc1C#N)C1CC1 [Compound 2, 2-cyano-N-cyclopropyl-N-methyl-5-[1-[2-methyl-5-(1,1,2,2,2-pentafluoroethyl)-4-(trifluoromethyl)pyrazol-3-yl]triazol-4-yl]thiophene-3-carboxamide]	≥ 80	≥ 80	≥ 80	≥ 80	≥ 80	≥ 80	–
CCN(C(=O)c1cc(-c2cn(-c3c(C(F)(F)F)c(C(F)(F)C(F)(F)F)nn3C)nn2)sc1C#N)C1(C#N)CC1 [Compound 6, 2-cyano-N-(1-cyanocyclopropyl)-N-ethyl-5-[1-[2-methyl-5-(1,1,2,2,2-pentafluoroethyl)-4-(trifluoromethyl)pyrazol-3-yl]triazol-4-yl]thiophene-3-carboxamide]	–	–	–	–	–	–	62 to 64
Cn1nc(C(F)(F)C(F)(F)F)c(C(F)(F)F)c1-c1cc(-c2cc(C(=O)NC3CC3)c(C#N)s2)on1 [Compound 13, 2-cyano-N-cyclopropyl-5-[3-[2-methyl-5-(1,1,2,2,2-pentafluoroethyl)-4-(trifluoromethyl)pyrazol-3-yl]isoxazol-5-yl]thiophene-3-carboxamide]	≥ 80	≥ 80	≥ 80	≥ 80	≥ 80	≥ 80	–
